Measurements reported in article PMC11434850, “Biosynthesis of Piceatannol from Resveratrol in Grapevine Can Be Mediated by Cresolase-Dependent Ortho-Hydroxylation Activity of Polyphenol Oxidase” (Plants, 2024).

System: T1, polyphenol oxidase (PPO), cresolase activity; most likely isoform XP_010647098.3
T1 construct: pooled fractions A7 and A8; immunoreactive bands 40, 52 and faint 70 kDa; proteolytic processing possible
Assay: Michaelis-Menten / double reciprocal plot; piceatannol formation by LC-MS MRM
Type: biochemical, Vitis vinifera
Conditions: o-hydroxylation (cresolase) to piceatannol; O2, 1 mM ascorbate, 0.1 M potassium phosphate pH 7.5, room temperature, 90 min, 5 to 200 µM substrate; partially purified, mixture of A7 and A8 fractions

For `Oc1ccc(/C=C/c2cc(O)cc(O)c2)cc1` [trans-resveratrol, 3,4′,5-trihydroxy-trans-stilbene], the Km was 118 ± 49.8 µM.
